{"source": "patent EP0525360B1", "about": "“Novel phenylacetamide derivatives and processes for the preparation thereof” (KOREA RESEARCH INSTITUTE OF CHEMICAL TECHNOLOGY, priority 1991, dated 1993)", "key": {"KTC-ICR mice": {"test_system": "KTC-ICR mice", "assay": "acetic acid induced writhing test", "assay_type": "in vivo", "details": "Mus musculus; oral; 0.9% acetic acid i.p. 60 minutes later; writhings during 10 minutes; mice 20 to 25g; Examples 1 to 32", "experimental": "The KTC-ICR mice derived from Charles River Breeding Laboratory in the United States and provided by Experimental Animal Laboratory of Korea Research Institute of Chemical Technology were used as test animals. […] They were tested after having been adjusted to the testing environment for a week. Food and water were given freely; and illumination was maintained on a 12-hour cycle.\nExperiments were performed in two ways: that is, the acetic acid induced writhing test and the phenyl-1,4-benzoquinone(PBQ) induced writhing test.\nSolutions for the acetic acid induced writhing test were prepared by dissolving one of the end products prepared in Examples […] in a saline solution containing 1% by weight of Tween 80 to have a concentration of 5mg/mℓ and diluting it serially with the saline solution. The test solutions were administered orally in a dose of 0.3mℓ per 30g of body weight, using the 5 ICR mice for each test. 60 minutes later, 0.9% acetic acid solution was administered intraperitoneally in a dose of 0.1mℓ per 30g of body weight. 3 minutes thereafter, the number of writhings generated during a period of 10 minutes due to the administration of acetic acid was measured. For comparison purpose, initially, saline solution alone was administered orally to the control group. 60 minutes thereafter, 0.9% acetic acid solution was administered intraperitoneally to the control group.\nThe number of writhings suffered by the test group was compared with that of the control group; and the analgesic effect was measured in terms of the percentage of inhibition of writhing(I. W.). I. W. (%) =(A - B)/(A)x 100 [formula] A : the number of writhings suffered by the control group, B : the number of writhings suffered by the test group.\nThese ED50 values for the test compounds are shown in the last column of Table 1."}, "[1]": {"assay": "Use Examples: administration of compositions to human subjects", "assay_type": "in vivo", "details": "0.4mℓ on 80cm^2 of the forearm, 60kg male adult", "experimental": "One tablet was administered orally to a patient(weight: 67kg) in need of analgesia two times daily to successfully provide the effect of general analgesia.\nThe compound of Example 5 was dissolved in sesame oil with the aid of sonication and was packaged in soft gelatin capsules using the common methods known in the art.\nThe above ingredients were mixed to produce a syrup which was packaged under a sterile condition in 6 oz. bottles. One teaspoon of this formulation was administrated to a 70kg adult, reducing inflammation and producing analgesia.\nThe compound of Example 1 was dissolved in a solution containing the other ingredients."}, "mice [2]": {"test_system": "mice", "assay": "Tail-flick test (radiant heat)", "assay_type": "in vivo", "experimental": "Radiant heat was applied using a beam of high-intensity light focused on a tail spot. The response time, defined as the interval between the onset of the stimulus and the tail flick, was measured electronically(to the nearest 0.1 second). The beam intensity was set at a level giving a mean control reaction time of 3.8±0.4 seconds. […] The percentage of inhibition was determined by the following equation: Inhibition(%) =(Reaction time of the treated group - Reaction time of the control group)/(Reaction time of the control group)x 100 [formula]"}, "mice [3]": {"test_system": "mice", "assay": "Hot-plate test", "assay_type": "in vivo", "details": "p. o.", "experimental": "Mice were placed on an aluminum plate maintained at 55± 0.5°C by a thermo-regulator(Harvard). A glass cylinder, 15cm in height and 15cm in diameter, served to confine the mice to the heated plate. Blowing of the fore paws was used as the end-point for determination of response latency(measured to the neatest 0.1 second)."}, "[4]": {"test_system": "Rats(Sprague-Dawley, female)", "assay": "Local anti-inflammatory test (transdermal, carrageenin paw edema)", "assay_type": "in vivo", "details": "for Double Dose(24 hr), percentage of inhibition: transdermal double dose (second application 7 hours later), edema measured 24 hours later; for Single Dose(1 hr), percentage of inhibition: transdermal single dose, edema measured 1 hour later", "experimental": "Rats(Sprague-Dawley, female) weighing 100 to 120g were used. 20 minutes after the test drug was administered transdermally (another application 7 hours later for double dose experiment), carrageenin was injected(0.1ml of 1% solution, s. c.) into the plantar surface of the right hind paw. The volume of the edema was measured with a volumeter either 1 hour later for […] dose experiment or 24 hours later for double dose experiment; and the percentage of inhibition was measured by the same equation as used in Anti-inflammatory Test."}, "[5]": {"test_system": "Rats(Sprague-Dawley, female)", "assay": "Anti-inflammatory test (carrageenin paw edema)", "assay_type": "in vivo", "details": "Rattus norvegicus, sc; s. c., twenty minutes before carrageenin; edema volume 3 hours later; read-out: ED50", "experimental": "Rats(Sprague-Dawley, female) weighing 100 to 120g were used. Twenty minutes after the test drug was administered(s. c.), carrageenin was injected(0.1mℓ of 1% solution, s. c.) in the plantar surface of the right hind paw.\nThe percentage of inhibition was determined by the following equation: Inhibition(%) =(Volume of the carrageenin treated foot - Volume of the control foot)/(Volume of the contol foot)x 100 [formula]"}, "Rats(Sprague-Dawley)": {"test_system": "Rats(Sprague-Dawley)", "assay": "Tail-pinch test in rats with hyperalgesia induced by Freund's adjuvant", "assay_type": "in vivo", "experimental": "Rats(Sprague-Dawley) weighing 120g to 170g were used. Desiccated Mycobacterium butyricum(Difco Laboratories, Detroit, MI) was ground in a mortar, suspended in liquid paraffin, sterilized in an autoclave, and injected(0.5mg in 0.1mℓ, s.c.) in the distal region of the tail through a 1-inch 21-gauge needle. […] The hypersensitivity of the tail was examined as follows: the animal was held comfortably in one hand and gentle pressure was applied with the fingers of the opposite hand to the injected area. This gentle squeeze or \"tail pinch\" elicited a \"squeak\" from the animal. Five such stimuli were given at 4-second intervals. If the animal emitted no more than one squeak in five trials, it was recorded as having analgesia and given a rating of 1. […] The analgesic activity was determined by the following equation: Analgesic activity =(Total rating)/(Tested aminal number)x 100 [formula] The compound of Example 1, administered two hours before tail-pinch testing perorally, caused a dose related inhibition of adjuvant induced hyperalgesia, as shown in Table 6."}, "[6]": {"test_system": "Salmonella typhimurium TA 100", "assay": "mutagenicity test (Maron and Ames)", "assay_type": "cell-based", "details": "3.2, 16, 80 and 400µg/plate", "experimental": "(§1) The numbers of mutated colonies were not increased at concentrations of 3.2, 16, 80 and 400µg/plate for the test compound."}, "[7]": {"test_system": "Salmonella typhimurium TA98", "assay": "mutagenicity test (Maron and Ames)", "assay_type": "cell-based", "details": "3.2, 16, 80 and 400µg/plate", "experimental": "as §1"}, "acute toxicity test": {"assay": "acute toxicity test", "details": "mouse, in vivo, po, per os, 5 weeks old, observed for 14 days"}, "[8]": {"test_system": "Male albino rats(120-170g) of the Charles River Sprague-Dawley strain", "assay": "Randall-Selitto test (yeast induced hyperalgesia)", "assay_type": "in vivo", "details": "dose 5 mg/Kg p. o.; 5 rats", "experimental": "Randall-Selitto Test was carried out by following the method described in Arch. Int. Pharmacodyn.\nMale albino rats(120-170g) of the Charles River Sprague-Dawley strain were used. Inflammation was produced by the injection of 0.1mℓ of a 20% suspension of Brewer's yeast into the plantar surface of the rat's hind foot.\nThe pain threshold was measured as the pressure in mmHg required to induce the desired response(a sharp audible squeak and/or struggle) when the pressure was applied to the foot. Air pressure from an air line was admitted through a needle valve to a 20mℓ glass syringe and to a pressure gauge which was connected by a T-tube. The syringe was mounted with the plunger downward to which was connected a short bullet-shaped Teflon peg. The pressure was applied to the foot of the rat at the rate of 10 mmHg per second. Drug was given 2 hours after the yeast injection. Two hours after the drug administration, threshold response was determined.\nThe analgesic activity was determined in terms of the percentage of inhibition of response: Inhibition(%) =(Threshold of the treated group - Threshold of the control group)/(Threshold of the control group)x 100 [formula]"}, "[9]": {"details": "dose 5 mg/Kg, 7 rats, Example 1 perorally two hours before testing"}}, "note": "Like-named read-outs stand apart in the source and are kept apart here.", "data": [{"molecule": "COc1cc(CC(=O)NCCCc2ccc(C)c(C)c2)ccc1OCCN", "note": "[Example 1, N-{3-(3,4-dimethylphenyl)propyl}-4-(2-aminoethoxy)-3-methoxyphenylacetamide]", "values": [{"measurement": "ED50", "setting": "KTC-ICR mice", "value": 0.08, "unit": "mg/kg"}, {"measurement": "local analgesia after topical application", "setting": "[1]; Use Example 5 liquid (4g in glycerol/water)", "value": "local analgesia which lasted for two days"}, {"measurement": "skin irritation after topical application", "setting": "[1]; Use Example 5 liquid", "value": "Little or no skin irritation was observed"}, {"measurement": "Inhibition(%)", "setting": "mice [2]; p. o., dose 1.25 mg/Kg", "value": 10, "unit": "%"}, {"measurement": "Inhibition(%)", "setting": "mice [2]; p. o., dose 2.5 mg/Kg", "value": 60, "unit": "%"}, {"measurement": "Inhibition(%)", "setting": "mice [2]; p. o., dose 5.0 mg/Kg", "value": 80, "unit": "%"}, {"measurement": "Inhibition(%)", "setting": "mice [2]; p. o., dose 7.5 mg/Kg", "value": 90, "unit": "%"}, {"measurement": "Inhibition(%)", "setting": "mice [2]; s. c., dose 0.5 mg/Kg", "value": 50, "unit": "%"}, {"measurement": "Inhibition(%)", "setting": "mice [2]; s. c., dose 1.0 mg/Kg", "value": 70, "unit": "%"}, {"measurement": "Inhibition(%)", "setting": "mice [3]; dose 2.5 mg/Kg", "value": 28.6, "unit": "%"}, {"measurement": "Inhibition(%)", "setting": "mice [3]; dose 5.0 mg/Kg", "value": 48.9, "unit": "%"}, {"measurement": "Inhibition(%)", "setting": "mice [3]; dose 10.0 mg/Kg", "value": 97.0, "unit": "%"}, {"measurement": "Double Dose(24 hr), percentage of inhibition", "setting": "[4]", "value": 32, "unit": "%"}, {"measurement": "Single Dose(1 hr), percentage of inhibition", "setting": "[4]", "value": 66, "unit": "%"}, {"measurement": "ED50", "setting": "[5]", "value": 4, "unit": "mg/kg"}, {"measurement": "Analgesic activity(%)", "setting": "Rats(Sprague-Dawley); [9]", "value": 45.9, "unit": "%"}, {"measurement": "Analgesic activity(%)", "setting": "Rats(Sprague-Dawley); dose 10 mg/Kg, 6 rats, perorally two hours before testing", "value": 66.7, "unit": "%"}, {"measurement": "numbers of mutated colonies", "setting": "[6]", "value": "not increased"}, {"measurement": "numbers of mutated colonies", "setting": "[7]", "value": "not increased"}, {"measurement": "LD50 at 336 h", "setting": "acute toxicity test; 5 ICR female mice, read-out: LD50(female)", "value": 364, "unit": "mg/kg"}, {"measurement": "LD50 at 336 h", "setting": "acute toxicity test; 5 ICR male mice, read-out: LD50(male)", "value": 224, "unit": "mg/kg"}, {"measurement": "Inhibition(%)", "setting": "[8]", "value": 247.4, "unit": "%"}]}, {"molecule": "COc1ccc2cc([C@H](C)C(=O)O)ccc2c1", "note": "[Naproxen, reference compound]", "values": [{"measurement": "Double Dose(24 hr), percentage of inhibition", "setting": "[4]", "value": 25, "unit": "%"}, {"measurement": "Single Dose(1 hr), percentage of inhibition", "setting": "[4]", "value": 54, "unit": "%"}, {"measurement": "ED50", "setting": "[5]", "value": 43, "unit": "mg/kg"}, {"measurement": "Analgesic activity(%)", "setting": "Rats(Sprague-Dawley); [9]", "value": 28.6, "unit": "%"}]}]}
